According to patent US7582662B2, “Body weight gain inhibitor” (Takeda Pharmaceutical Company Limited, priority 2002, dated 2009):
Counter-ions that a name gives are not always drawn.

Experiments:
[1] = Body weight gain of obese mouse (compound A-mixed feed, 4 days); format: in vivo, male KKA^y mice; settings: KKA^y mice, 10 week old, 0.005% compound A-mixed feed (about 6.5 mg/kg/day), mean±standard error, control 1.2±0.2 g, p<0.05
Experimental: Effect of 2-ethoxy-1-[[2′-(2,5-dihydro-5-oxo-1,2,4-oxadiazole-3-yl)biphenyl-4-yl]methyl]benzimidazole-7-carboxylic acid (Compound A) on Body Weight Gain of Obese Mouse
As the obese mouse, male KKA^y mice (10 week old) were used. The mice were grouped by measuring the body weight, and feeding of a CE-2 powdered feed (control)(n=7) and a 0.005% compound A-mixed feed (n=7) was started. At 4 days from feeding, the body weight was measured and the amount of the body weight gain was calculated. As the normal control, C57BL mice were used, and after feeding a CE-2 powdered feed for 4 days, whether the male KKA^y mice of the same age became obese was also examined.
The results are shown in mean±standard error. For the analysis of significance, Student's t-test was used. • 2) Results

[2] = Body weight gain induced by PPARγ agonist-like substance (pioglitazone) in obesity rats; format: in vivo, male Wistar fatty rats; settings: Wistar fatty rats, 7 days
Experimental: Effect of Compound a on Body Weight Gain Induced by PPARγ Agonist-Like Substance (Pioglitazone) As the obesity rats, male Wistar fatty rats (16 week old) were used. The body weights were measured and the rats were grouped, after which a suspension of a drug in 0.5% methylcellulose solution was repeatedly and forcibly administered orally once a day for 7 consecutive days. After 24 hr from the final administration, the body weight was measured and the body weight gain was calculated. […] For the analysis of significance, Student's t-test was used. • 2) Results

[3] = patients with type II diabetes; Diabetes, 47, suppl. 1, A18, No. 69, 1998; cited from earlier work

Structure (SMILES): CCOc1nc2cccc(C(=O)O)c2n1Cc1ccc(-c2ccccc2-c2nc(=O)o[nH]2)cc1 [compound A, 2-ethoxy-1-[[2′-(2,5-dihydro-5-oxo-1,2,4-oxadiazol-3-yl)biphenyl-4-yl]methyl]benzimidazole-7-carboxylic acid]
- body weight gain during the test period [1]: 0.1 ± 0.4 g
- amount of body weight gain ([2]; compound A 1 mg/kg/day p.o. together with PPARγ agonist-like substance (pioglitazone hydrochloride) 0.5 mg/kg/day p.o., p<0.05 vs single administration group): 19.3 ± 2.5 g

Structure (SMILES): CCc1ccc(CCOc2ccc(CC3SC(=O)NC3=O)cc2)nc1 (stereo not shown) [pioglitazone hydrochloride]
- amount of body weight gain ([2]; 0.5 mg/kg/day p.o. alone, mean±standard error, control 24.4±2.4 g, p<0.05): 30.8 ± 1.8 g

Structure (SMILES): Cc1c(C)c2c(c(C)c1O)CCC(C)(COc1ccc(CC3SC(=O)NC3=O)cc1)O2 (stereo not shown) [troglitazone]
- effect on body weight [3]: body weight gaining action
